# Reference: patent publication US8344002B2, “Compound having β-secretase inhibitory activity” (priority 2007, dated 2013)
# Target: T1, recombinant human BACE-1 (rhBACE-1) (Homo sapiens, UniProt P56817)
# T1 construct: expressed as only an extracellular region (amino acid 1-460 residues) of recombinant human β-secretase; His tag (C); purchased R&D systems (Minneapolis, Minn.); host or cells: murine myeloma cell line NS0
# Experiment: BACE1 inhibitory activity, rhBACE-1 with fluorogenic peptide substrate, reverse phase HPLC
# Assay type: biochemical
# Settings: inhibitor 2 μM; MES buffer pH 5.0, 37° C., 60 minutes; read-out: Inhibitory rate (%) (2 μM)
# Text: Experiment Regarding Measurement of BACE1 Inhibitory Activity Enzyme Used in Measurement As an enzyme having β-secretase activity, recombinant human BACE-1 (rhBACE-1) purchased from R&D systems (Minneapolis, Minn.) was used. rhBACE-1 is expressed as only an extracellular region ([…] residues) of recombinant human β-secretase, with a His tag at its carboxyl terminus in murine myeloma cell line, NS0. Purified secreted rhBACE1 is a mixture of a pro entity (about 75 kDa) and a mature entity (about 72 kDa). […] Assessment of Enzyme Inhibitory Activity […] After incubation at 37° C. for 60 minutes, 20 μL of 20% trichloroacetic acid was added to stop the reaction. And, inhibition % was calculated by measuring a fluorescent intensity of the N-terminal fragment (Ex, 328 nm; […]
# T1 sequence (P56817 46-460 limits assumed): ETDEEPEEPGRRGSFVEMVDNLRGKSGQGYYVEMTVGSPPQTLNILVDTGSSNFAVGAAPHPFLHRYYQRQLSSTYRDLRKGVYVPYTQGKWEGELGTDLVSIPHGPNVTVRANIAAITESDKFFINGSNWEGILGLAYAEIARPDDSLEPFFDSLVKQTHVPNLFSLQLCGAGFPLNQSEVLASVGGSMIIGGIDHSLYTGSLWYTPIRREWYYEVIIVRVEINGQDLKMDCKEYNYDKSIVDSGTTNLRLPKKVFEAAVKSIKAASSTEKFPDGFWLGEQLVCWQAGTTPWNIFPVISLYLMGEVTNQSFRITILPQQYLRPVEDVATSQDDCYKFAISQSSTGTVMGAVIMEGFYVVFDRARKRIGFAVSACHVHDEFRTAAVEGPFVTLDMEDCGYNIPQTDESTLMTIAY
row,SMILES,inhibition at 2 µM [%]
1,CS(=O)(=O)Oc1cc(C(=O)NC(Cc2ccccc2)[C@H](O)C(=O)Nc2cccc(-c3nn[nH]n3)c2)nc(C(=O)N2COCC2c2ccccc2)c1 (stereo partly shown) [Example 16],95.6
2,C[C@@H](NC(=O)c1cccc(C(=O)NC(Cc2ccccc2)[C@H](O)C(=O)Nc2cccc(-c3nn[nH]n3)c2)n1)c1ccccc1 (stereo partly shown) [Example 9],65.6
3,CC(C)(NC(=O)c1cccc(C(=O)NC(Cc2ccccc2)[C@H](O)C(=O)Nc2cccc(-c3nn[nH]n3)c2)n1)c1ccccc1 (stereo partly shown) [Example 10],69.1
4,O=C(N[C@@H](Cc1ccccc1)[C@H](O)C(=O)Nc1cccc(-c2nn[nH]n2)c1)c1cc(=O)cc(C(=O)N(Cc2ccccc2)Cc2ccccc2)o1 [Example 2],28.8
5,O=C(NC(Cc1ccccc1)[C@H](O)C(=O)Nc1cccc(-c2nn[nH]n2)c1)c1cccc(C(=O)N2COCC2c2ccccc2)n1 (stereo partly shown) [Example 15],92.6
6,CC(C)(NC(=O)c1cccc(C(=O)NC(Cc2ccccc2)[C@H](O)C(=O)NS(=O)(=O)C(F)(F)F)n1)c1ccccc1 (stereo partly shown) [Example 17],37.4
7,O=C(NC(Cc1ccccc1)[C@H](O)C(=O)Nc1cccc(-c2nn[nH]n2)c1)c1cc(=O)cc(C(=O)N2COCC2c2ccccc2)[nH]1 (stereo partly shown) [Example 14],82.7
8,CC(C)(NC(=O)c1cc(=O)cc(C(=O)NC(Cc2ccccc2)[C@H](O)C(=O)Nc2cccc(-c3nn[nH]n3)c2)[nH]1)c1ccccc1 (stereo partly shown) [Example 8],65.1

# Next, values leading:
row,inhibition at 2 µM [%],SMILES
1,70.1,C[C@@H](NC(=O)c1cc(=O)cc(C(=O)N[C@@H](Cc2ccccc2)[C@H](O)C(=O)Nc2cccc(-c3nn[nH]n3)c2)o1)c1ccccc1 [Example 1]
2,80.8,CC(C)(NC(=O)c1cc(=O)cc(C(=O)N[C@@H](Cc2ccccc2)[C@H](O)C(=O)Nc2cccc(-c3nn[nH]n3)c2)o1)c1ccccc1 [Example 21]
3,70.4,COc1ccc([C@@H](C)NC(=O)c2cc(=O)cc(C(=O)N[C@@H](Cc3ccccc3)[C@H](O)C(=O)Nc3cccc(-c4nn[nH]n4)c3)o2)cc1 [Example 5]
4,75.8,C[C@@H](NC(=O)c1cc(=O)cc(C(=O)N[C@@H](Cc2ccccc2)[C@H](O)C(=O)Nc2cccc(-c3nn[nH]n3)c2)o1)c1ccc(F)cc1 [Example 22]
5,66.9,CN(Cc1ccccc1)C(=O)c1cc(=O)cc(C(=O)N[C@@H](Cc2ccccc2)[C@H](O)C(=O)Nc2cccc(-c3nn[nH]n3)c2)o1 [Example 6]
6,50.8,C[C@@H](NC(=O)c1cc(=O)cc(C(=O)NC(Cc2ccccc2)[C@H](O)C(=O)Nc2cccc(-c3nn[nH]n3)c2)[nH]1)c1ccccc1 (stereo partly shown) [Example 7]
7,95.6,O=C(NC(Cc1ccccc1)[C@H](O)C(=O)Nc1cccc(-c2nn[nH]n2)c1)c1cc(=O)cc(C(=O)N2COCC2c2ccccc2)o1 (stereo partly shown) [Example 13]
8,26.8,C[C@@H](NC(=O)c1cc(=O)cc(C(=O)N[C@@H](Cc2ccccc2)[C@H](O)C(=O)Nc2cccc(-c3nn[nH]n3)c2)o1)c1ccc([N+](=O)[O-])cc1 [Example 3]
